In patent US11702404B2, “GLP-1R modulating compounds” (priority 2019, dated 2023):

How the values were obtained:
GLP-1R = GLP-1R (Homo sapiens, UniProt P43220); assay: GLP-1R activation: cAMP increase in CHO cells stably expressing GLP-1R; type: cell-based; conditions: cAMP increase, CHO cells stably expressing GLP-1R, 10 point dose response, 30 minutes incubation; read-out: EC50
[1] = Microsomal stability, human liver microsomes (predicted hepatic clearance); conditions: predicted from in vitro microsomal stability data

GLP-1R, sequence (P43220 24-463): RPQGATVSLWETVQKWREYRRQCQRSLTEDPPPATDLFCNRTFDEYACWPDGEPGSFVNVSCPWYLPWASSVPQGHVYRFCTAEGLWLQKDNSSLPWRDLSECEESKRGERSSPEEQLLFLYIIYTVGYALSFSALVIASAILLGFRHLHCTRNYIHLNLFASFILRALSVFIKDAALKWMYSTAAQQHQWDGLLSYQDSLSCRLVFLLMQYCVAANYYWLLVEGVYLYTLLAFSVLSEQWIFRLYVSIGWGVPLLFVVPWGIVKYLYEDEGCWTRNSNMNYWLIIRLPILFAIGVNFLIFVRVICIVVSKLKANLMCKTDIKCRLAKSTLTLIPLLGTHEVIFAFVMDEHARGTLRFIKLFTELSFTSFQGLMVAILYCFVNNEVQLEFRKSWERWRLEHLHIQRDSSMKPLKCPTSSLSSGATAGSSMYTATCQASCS

| EC50 (GLP-1R) | Predicted Hepatic Clearance (Pred. Cl.) [1] | Compound |
| --- | --- | --- |
| 48.1 nM | 9.5 mL/min/kg | COCCn1c(Cc2ccc(-c3cccc(OCc4cccc5c4OCCO5)n3)cc2F)nc2ccc(C(=O)O)cc21 [Example 348, 2-(4-(6-((2,3-dihydrobenzo[b][1,4]dioxin-5-yl)methoxy)pyridin-2-yl)-2-fluorobenzyl)-1-(2-methoxyethyl)-1H-benzo[d]imidazole-6-carboxylic acid] |
| 3.05 nM | <1.83 mL/min/kg | COCCn1c(Cc2cc(F)c(-c3ccnc(OCc4ccc(C#N)cc4F)n3)cc2F)nc2ccc(C(=O)O)cc21 [Example 349, 2-(4-(2-((4-cyano-2-fluorobenzyl)oxy)pyrimidin-4-yl)-2,5-difluorobenzyl)-1-(2-methoxyethyl)-1H-benzo[d]imidazole-6-carboxylic acid] |
| 0.79 nM | 6.33 mL/min/kg | N#Cc1ccc(COc2nccc(-c3ccc(Cc4nc5ccc(C(=O)O)cc5n4CC4(CF)CC4)cc3F)n2)c(F)c1 [Example 350, 2-(4-(2-((4-cyano-2-fluorobenzyl)oxy)pyrimidin-4-yl)-3-fluorobenzyl)-1-((1-(fluoromethyl)cyclopropyl)methyl)-1H-benzo[d]imidazole-6-carboxylic acid] |
| 0.96 nM | 2 mL/min/kg | N#Cc1ccc(COc2nccc(-c3ccc(Cc4nc5ccc(C(=O)O)cc5n4C[C@@H]4CCO4)c(F)c3)n2)c(F)c1 [Example 351, (S)-2-(4-(2-((4-cyano-2-fluorobenzyl)oxy)pyrimidin-4-yl)-2-fluorobenzyl)-1-(oxetan-2-ylmethyl)-1H-benzo[d]imidazole-6-carboxylic acid] |
| 1.45 nM | <1.83 mL/min/kg | O=C(O)c1ccc2nc(Cc3ccc(-c4cccc(OCc5ccc(Cl)cc5F)n4)cc3F)n(CC3(CF)CC3)c2c1 [Example 352, 2-(4-(6-((4-chloro-2-fluorobenzyl)oxy)pyridin-2-yl)-2-fluorobenzyl)-1-((1-(fluoromethyl)cyclopropyl)methyl)-1H-benzo[d]imidazole-6-carboxylic acid] |
| 1.67 nM | <1.83 mL/min/kg | N#CCC1(Cn2c(Cc3ccc(-c4ccnc(OCc5ccc(C#N)cc5F)n4)cc3F)nc3ccc(C(=O)O)cc32)CC1 [Example 353, 2-(4-(2-((4-cyano-2-fluorobenzyl)oxy)pyrimidin-4-yl)-2-fluorobenzyl)-1-((1-(cyanomethyl)cyclopropyl)methyl)-1H-benzo[d]imidazole-6-carboxylic acid] |
| 146 nM | 7.5 mL/min/kg | Cn1c(Cc2ccc(-c3cccc(OCc4ccc(C#N)cc4F)n3)cc2F)nc2ccc(C(=O)O)cc21 [Example 354, 2-(4-(6-((4-cyano-2-fluorobenzyl)oxy)pyridin-2-yl)-2-fluorobenzyl)-1-methyl-1H-benzo[d]imidazole-6-carboxylic acid] |
| 0.97 nM | 3.3 mL/min/kg | N#Cc1ccc(COc2cccc(-c3ccc(Cc4nc5ccc(C(=O)O)nc5n4CC4(CF)CC4)c(F)c3)n2)c(F)c1 [Example 355, 2-(4-(6-((4-cyano-2-fluorobenzyl)oxy)pyridin-2-yl)-2-fluorobenzyl)-3-((1-(fluoromethyl)cyclopropyl)methyl)-3H-imidazo[4,5-b]pyridine-5-carboxylic acid] |
| 48.7 nM | 7.17 mL/min/kg | N#Cc1ccc(COc2cccc(-c3ccc(Cc4nc5ccc(C(=O)O)cc5n4C4CC4)c(F)c3)n2)c(F)c1 [Example 356, 2-(4-(6-((4-cyano-2-fluorobenzyl)oxy)pyridin-2-yl)-2-fluorobenzyl)-1-cyclopropyl-1H-benzo[d]imidazole-6-carboxylic acid] |
| 56.2 nM | <1.83 mL/min/kg | COCCn1c(Cc2ccc(-c3cccc(OCc4ccc(C#N)c5ccccc45)n3)cc2F)nc2ccc(C(=O)O)cc21 [Example 357, 2-(4-(6-((4-cyanonaphthalen-1-yl)methoxy)pyridin-2-yl)-2-fluorobenzyl)-1-(2-methoxyethyl)-1H-benzo[d]imidazole-6-carboxylic acid] |
| 33.1 nM | 6.5 mL/min/kg | COCCn1c(Cc2ccc(-c3nc(OCc4ccc(C#N)cc4F)ncc3F)cc2F)nc2ccc(C(=O)O)cc21 [Example 358, 2-(4-(2-((4-cyano-2-fluorobenzyl)oxy)-5-fluoropyrimidin-4-yl)-2-fluorobenzyl)-1-(2-methoxyethyl)-1H-benzo[d]imidazole-6-carboxylic] |
| 3.09 nM | <1.83 mL/min/kg | N#Cc1ccc(COc2nccc(-c3ccc(Cc4nc5ccc(C(=O)O)nc5n4CC4(CF)CC4)c(F)c3)n2)c(F)c1 [Example 359, 2-(4-(2-((4-cyano-2-fluorobenzyl)oxy)pyrimidin-4-yl)-2-fluorobenzyl)-3-((1-(fluoromethyl)cyclopropyl)methyl)-3H-imidazo[4,5-b]pyridine-5-carboxylic acid] |
| 0.94 nM | <1.83 mL/min/kg | N#Cc1ccc(COc2nccc(-c3ccc(Cc4nc5c(F)cc(C(=O)O)cc5n4CC4(CF)CC4)c(F)c3)n2)c(F)c1 [Example 360, 2-(4-(2-((4-cyano-2-fluorobenzyl)oxy)pyrimidin-4-yl)-2-fluorobenzyl)-4-fluoro-1-((1-(fluoromethyl)cyclopropyl)methyl)-1H-benzo[d]imidazole-6-carboxylic acid] |
| 0.74 nM | 2.83 mL/min/kg | N#Cc1ccc(COc2cccc(-c3ccc(Cc4nc5c(F)cc(C(=O)O)cc5n4CC4(CF)CC4)c(F)c3)n2)c(F)c1 [Example 361, 2-(4-(6-((4-cyano-2-fluorobenzyl)oxy)pyridin-2-yl)-2-fluorobenzyl)-4-fluoro-1-((1-(fluoromethyl)cyclopropyl)methyl)-1H-benzo[d]imidazole-6-carboxylic acid] |
| 21.8 nM | 16.2 mL/min/kg | COCCn1c(Cc2ccc(-c3cccc(OCc4cccc5c4OCO5)n3)cc2F)nc2ccc(C(=O)O)cc21 [Example 362, 2-(4-(6-(benzo[d][1,3]dioxol-4-ylmethoxy)pyridin-2-yl)-2-fluorobenzyl)-1-(2-methoxyethyl)-1H-benzo[d]imidazole-6-carboxylic acid] |
| 8.96 nM | 7.75 mL/min/kg | COCCn1c(Cc2ccc(-c3cccc(OCc4ccc(C#N)c(F)c4OC)n3)cc2F)nc2ccc(C(=O)O)cc21 [Example 363, 2-(4-(6-((4-cyano-3-fluoro-2-methoxybenzyl)oxy)pyridin-2-yl)-2-fluorobenzyl)-1-(2-methoxyethyl)-1H-benzo[d]imidazole-6-carboxylic acid] |
| 1.76 nM | 3.83 mL/min/kg | COCCn1c(Cc2ccc(-c3cccc(OCc4ccc(C#N)cc4F)n3)cc2F)nc2ccc(C(=O)O)c(F)c21 [Example 364, 2-(4-(6-((4-cyano-2-fluorobenzyl)oxy)pyridin-2-yl)-2-fluorobenzyl)-7-fluoro-1-(2-methoxyethyl)-1H-benzo[d]imidazole-6-carboxylic acid] |
| 0.6 nM | 4.67 mL/min/kg | CC1(Cn2c(Cc3ccc(-c4cccc(OCc5ccc(C#N)cc5F)n4)cc3F)nc3ccc(C(=O)O)cc32)CCO1 (stereo not drawn) [Example 365, 2-(4-(6-((4-cyano-2-fluorobenzyl)oxy)pyridin-2-yl)-2-fluorobenzyl)-1-((2-methyloxetan-2-yl)methyl)-1H-benzo[d]imidazole-6-carboxylic acid] |
| 20.8 nM | 5.5 mL/min/kg | COCCn1c(Cc2ccc(-c3cccc(OCc4ccc(C#N)cc4F)n3)cc2F)nc2ccc(C(=O)O)c(Cl)c21 [Example 366, 7-chloro-2-(4-(6-((4-cyano-2-fluorobenzyl)oxy)pyridin-2-yl)-2-fluorobenzyl)-1-(2-methoxyethyl)-1H-benzo[d]imidazole-6-carboxylic acid] |
| 0.86 nM | 10.8 mL/min/kg | COc1cc(C#N)ccc1COc1cccc(-c2ccc(Cc3nc4ccc(C(=O)O)cc4n3CC3(CF)CC3)c(F)c2)n1 [Example 367, 2-(4-(6-((4-cyano-2-methoxybenzyl)oxy)pyridin-2-yl)-2-fluorobenzyl)-1-((1-(fluoromethyl)cyclopropyl)methyl)-1H-benzo[d]imidazole-6-carboxylic acid] |
| 0.77 nM | <1.83 mL/min/kg | COCCn1c(Cc2cc(F)c(-c3ccnc(OCc4ccc(C#N)cc4OC)n3)cc2F)nc2ccc(C(=O)O)cc21 [Example 368, 2-(4-(2-((4-cyano-2-methoxybenzyl)oxy)pyrimidin-4-yl)-2,5-difluorobenzyl)-1-(2-methoxyethyl)-1H-benzo[d]imidazole-6-carboxylic acid] |
| 0.13 nM | 4.33 mL/min/kg | N#Cc1ccc(COc2nccc(-c3ccc(Cc4nc5c(F)cc(C(=O)O)cc5n4C[C@@H]4CCO4)cc3F)n2)c(F)c1 [Example 369, (S)-2-(4-(2-((4-cyano-2-fluorobenzyl)oxy)pyrimidin-4-yl)-3-fluorobenzyl)-4-fluoro-1-(oxetan-2-ylmethyl)-1H-benzo[d]imidazole-6-carboxylic acid] |
| 3.34 nM | 6.7 mL/min/kg | CCn1nncc1Cn1c(Cc2ccc(-c3cccc(OCc4ccc(C#N)cc4F)n3)cc2F)nc2ccc(C(=O)O)cc21 [Example 370, 2-(4-(6-((4-cyano-2-fluorobenzyl)oxy)pyridin-2-yl)-2-fluorobenzyl)-1-((l-ethyl-1H-1,2,3-triazol-5-yl)methyl)-1H-benzo[d]imidazole-6-carboxylic acid] |
| 1.61 nM | 3 mL/min/kg | N#Cc1ccc(COc2cccc(-c3ccc(Cc4nc5ccc(C(=O)O)cc5n4Cc4ncco4)c(F)c3)n2)c(F)c1 [Example 371, 2-(4-(6-((4-cyano-2-fluorobenzyl)oxy)pyridin-2-yl)-2-fluorobenzyl)-1-(oxazol-2-ylmethyl)-1H-benzo[d]imidazole-6-carboxylic acid] |
